RP-LC retention time data for 80 compounds are collected here from the METLIN SMRT retention time set (Domingo-Almenara et al. 2019).

The nature of this series: gradient 5% acetonitrile 3 min, to 50% in 2 min, to 85% in 15 min, held 3 min, 100 µL/min. The note with it: column: Zorbax Extend-C18 2.1 x 50 mm; eluents: water / acetonitrile, 0.1% formic acid. In short, it runs like this:
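Over 3 months, pure standards in mixtures of ~100 molecules were run by HPLC coupled to a quadrupole time-of-flight mass spectrometer in positive and negative ionization mode. The column was a Zorbax Extend-C18 (2.1 × 50 mm, 1.8 μm) at 100 μL/min, eluted with water and acetonitrile each holding 0.1% formic acid, with 40 μL dead and 900 μL dwell volumes. Retention time was determined from adduct peaks chosen by software and checked manually.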
`CCOC(=O)c1[nH]c(C)c(CN(Cc2ccco2)C(=O)Nc2cccc(F)c2)c1C` gave an RP-LC retention time of 990 s.
As to `CSc1ccc(CNC(=O)c2cc3ccncc3n2C)cc1`, the RP-LC retention time is 637 s.
Take `COCCN1C(=O)CCc2cc(NC(C)=O)ccc21`: the RP-LC retention time was 604 s.
Take `COCc1cnc2c(c1SCc1cccc(F)c1)c(=O)n(C)c(=O)n2C`: the RP-LC retention time is 960 s.
The value for `O=C(CC1CCCCC1)NC(Cc1ccccc1)C(=O)N1CCN(c2ccccn2)CC1` (stereo not given) was 695 s; that for `Cc1ccn(S(=O)(=O)c2ccc(C(C)(C)C)cc2)n1` was 983 s.
The value for `O=C(Nc1ccc2c(c1)OCO2)C1CCCN(S(=O)(=O)Cc2ccc(Cl)cc2)C1` (stereo not given) was 964 s; that for `COc1nccnc1N1CCC(N(C)C(=O)c2ccc3c(c2)OCO3)C1` (stereo not given) was 694 s.
As for `CCc1ccc(S(=O)(=O)Nc2ccc3c(c2)N(C(=O)c2cccs2)CC3)s1`, the RP-LC retention time was found to be 923 s.
The value for `CC(C)CN1CCn2cc(C(=O)NCc3cc(F)ccc3F)nc2C1` was 608 s; that for `CCc1noc(NC(C)=O)c1-c1ccc(OC)c(S(=O)(=O)Nc2ccccc2OC)c1` was 791 s; that for `Cc1cc(Cl)ccc1NC(=O)C1CCN(S(=O)(=O)c2cc(C(=O)N3CCCC3)cs2)CC1` was 892 s.
For the compound `O=C1CC(c2nc3ccccc3n2CCN2CCOCC2)CN1Cc1ccccc1` (stereo not given), the RP-LC retention time came out at 597 s.
As for `CC(C)N1C(=O)Cc2ccccc2C1C(=O)N1CCN(c2ccccc2)CC1` (stereo not given), the figure is 855 s; as for `Cc1ccc(-c2nc(N3CC(C)CC(C)C3)c3ccccc3n2)cc1` (stereo not given), 932 s; as for `CCCCN(C)C(=O)c1cc2c(s1)N(CC)CCCC2`, 1100 s.
As for `O=C(Nc1ccc(F)c(Cl)c1)N1CCC(N2CCN(Cc3ccccc3)C2=O)CC1`, the figure is 899 s.
Compound `COc1ccc2c(c1)C1(CCN(S(=O)(=O)c3ccc(C)cc3)C1)C(=O)N2C` (stereo not given) gave an RP-LC retention time of 929 s.
As to `CC(C)C(NC(=O)c1ccco1)C(=O)NCc1nn(C)c2ccccc12` (stereo not given), the RP-LC retention time turned out to be 677 s.
Take `CCN1CCN(c2cc(C(=O)O)c3cc(NS(=O)(=O)c4cc(C)ccc4C)ccc3n2)CC1`: the RP-LC retention time was 610 s.
The value for `Cc1ccc(-n2nc(N3CCN(C(=O)Nc4ccc(F)cc4F)CC3)ccc2=O)cc1` was 781 s.
Turning to `O=C(Nc1ccc(NC(=O)c2ccncc2)cc1)c1ccncc1`, the RP-LC retention time came to 610 s.
As to `Cc1nnc(CNC(=O)c2cc(-c3ccc(F)cc3)c[nH]2)o1`, the RP-LC retention time is 649 s.
As for `CCCNC(=O)CCc1nc2ccccc2n(CC(=O)Nc2cccc(CC)c2)c1=O`, the figure is 845 s.
As for `CCc1ccc(CNC(=O)C2CCN(C(=O)c3ncn4c3COC(c3ccccc3)C4)CC2)cc1` (stereo not given), the figure is 756 s; as for `COCCNC(=O)C1CCN(c2nc3ccc(-c4cccc(OC)c4)nc3s2)CC1`, 804 s.
The value for `CN1C(=O)c2ccccc2Oc2ccc(C(=O)NCc3ccc(Cl)cc3)cc21` was 957 s; that for `CN(CC1CCOC1)C(=O)Nc1ccccc1C(F)(F)F` (stereo not given) was 713 s.
In the case of `COc1cccc(CCC(=O)N(C)C[C@@]23CCC[C@H]2N(C)C(=O)CC3)c1`, the RP-LC retention time amounted to 571 s.
As for `O=C(NCC(O)c1ccc(C(F)(F)F)cc1)C(c1ccccc1)c1ccccc1` (stereo not given), the figure is 938 s; as for `Cc1ccccc1-c1nc2cnccn2c1NCCC(=O)NCc1ccc(F)c(Cl)c1`, 714 s; as for `Cn1c(=O)c2ccnn2c2ccc(C(=O)NC3CCCCC3)cc21`, 742 s.
The compound `CC(C)c1ccc(Sc2ccc(N3CCC(C(=O)NCCN(C)C)CC3)nn2)cc1` returned an RP-LC retention time of 658 s.
`Cc1ccc(C2CC(=O)c3cnc(Nc4nc(C)c5cc(C)c(C)cc5n4)nc3C2)cc1` (stereo not given) showed an RP-LC retention time of 862 s.
With `CCc1ccc(NC(=O)CN2C(=O)NC3(CCCCC3)C2=O)cc1`, the RP-LC retention time is 765 s.
Regarding `CCN1CCCC1CNC(=O)c1nnc(Cc2cc(OC)c(OC)c(OC)c2)o1` (stereo not given), the RP-LC retention time came to 586 s.
On to `COCCn1c(C)cc(O)c(C(c2ccc(Cl)cc2)N2CCC(C)CC2)c1=O` (stereo not given), for which the RP-LC retention time worked out at 644 s.
The compound `CN(C)S(=O)(=O)c1ccc(N)c([N+](=O)[O-])c1` gave an RP-LC retention time of 773 s.
As for `O=S(=O)(c1cc(-c2noc(C3CC3)n2)cs1)N1CCN(c2ccccn2)CC1`, the figure is 719 s.
As for `COc1cccc(CNC(=O)Cn2nc3c(Oc4ccc(Cl)cc4)nccn3c2=O)c1`, the figure is 849 s; as for `Cc1ccc2c(c1)c(C)c(C)n2CC(O)Cn1nc(C)cc1C` (stereo not given), 933 s.
As for `Cc1cc(N2CCN(C(=O)Nc3ccccc3C)CC2)nc(N2CCOCC2)n1`, the figure is 613 s.
In turn, `COc1ccc(-c2ccnc3nc(C4CCC4)nn23)c(F)c1` gave an RP-LC retention time of 869 s.
As for `CNC(=O)CCc1nc2ccccc2n(CC(=O)NCc2ccc(C)cc2)c1=O`, the figure is 695 s; as for `CCOc1ccc(-c2csc(Cc3nc(-c4ccccc4Cl)no3)n2)cc1`, 1290 s; as for `CCCN1CCn2cc(S(=O)(=O)Nc3ccccc3OC)cc2C1=O`, 733 s.
The compound `CC(C)c1nc(N2CCN(c3ccccc3)CC2)ncc1C(=O)O` returned an RP-LC retention time of 868 s.
In turn, `COc1ccc(N2CCN(S(=O)(=O)c3cc(-c4csc(C)n4)ccc3C)CC2)cc1` registered an RP-LC retention time of 1130 s.
As for `Cc1nn(C)cc1CNC(=O)c1cnn2c(C(F)F)cc(-c3ccccc3)nc12`, the figure is 786 s; as for `Cc1ccc(-c2cc3c4nn(CC(=O)NC5CCCC5)c(=O)n4ccn3n2)cc1C`, 918 s; as for `CCn1c(CCNC(=O)c2ccc(C)c(C)c2)nc2cccnc21`, 661 s.
Regarding `Cc1ccccc1NC(=O)N(C)Cc1ccsc1`, the RP-LC retention time was 866 s.
In turn, `CCCNC(=O)C1CCN(c2ccc(SCC(=O)Nc3cc(C)ccc3OC)nn2)CC1` returned an RP-LC retention time of 700 s.
The value for `CCn1cc(C(=O)NCc2ccc(F)cc2)c2cccnc21` was 771 s.
Take `O=C(NCc1ccc(F)cc1F)c1csc(C(=O)NC2CC2)n1`: the RP-LC retention time amounted to 789 s.
As for `COCCN1C(=O)[C@H]2CN(Cc3ccc(OC)c(OC)c3OC)C[C@H]2C1=O`, the figure is 799 s.
On to `Cc1cc(C)c(CNC(=O)c2nnc(-c3ccc(S(=O)(=O)N(C)C)cc3)o2)c(C)c1`, for which the RP-LC retention time came out at 1010 s.
As for `CSc1nc2ccc3nc(NC(=O)C4=COCCO4)sc3c2s1`, the figure is 905 s.
As for `CC(C)C(=O)Nc1ccc(-n2cnc(C(=O)N3CCN(C4CCCCC4)CC3)c2)nc1`, the figure is 601 s; as for `CC(=O)Nc1ccc2nc(NC(=O)c3cccc(C(F)(F)F)c3)sc2c1`, 784 s.
The value for `Cc1cc(=O)n(CC(=O)NCc2ccc(Cl)cc2)c(N)n1` was 613 s; that for `Cc1cc(C)cc(N2CCC(NC(=O)c3ccc(Br)o3)C2=O)c1` (stereo not given) was 894 s.
With `CCOc1ccc(C(=O)NC2(c3nc(CC)no3)CCCCC2)cc1OCC`, the RP-LC retention time was determined as 990 s.
Take `CCC(C)C(NC(=O)c1ccc(F)c(F)c1)C(=O)Nc1nc2ccccc2[nH]1` (stereo not given): the RP-LC retention time was determined as 774 s.
`CCC(C)NC(=O)N1CCN(Cc2nc3cc(C(=O)N(C)C)ccc3o2)CC1` (stereo not given) showed an RP-LC retention time of 587 s.
In turn, `CCN(CC)S(=O)(=O)c1cc(-c2nnc(-c3ccc(C)cc3)o2)ccc1Cl` gave an RP-LC retention time of 1190 s.
As for `CCOC(=O)/C=C/c1ccc(C(=O)OCC)[nH]1`, the figure is 947 s; as for `COc1cccc(CCC(=O)NC2(c3nc(C)no3)CCCCC2)c1`, 856 s; as for `COCCC1CCOC2(CCN(C(=O)C3CC3)CC2)C1` (stereo not given), 710 s.
As for `O=C(CCC(=O)N1CC2CCCN2c2ccccc21)N1CCN(Cc2ccccc2)CC1` (stereo not given), the figure is 678 s.
Take `COc1ccc(NS(=O)(=O)c2cc(-c3nnc(C(=O)N4CCCC4)o3)sc2C)cc1OC`: the RP-LC retention time came out at 806 s.
With `Cc1ccc(Cn2c(=O)n(CCNC(=O)c3ccc4c(c3)OCO4)c3ncccc32)cc1`, the RP-LC retention time stood at 824 s.
Consider `CC1CCCCN1CCNC(=O)Cn1c(=O)c2cccn2c2ccc(F)cc21` (stereo not given), for which the RP-LC retention time stood at 612 s.
The value for `Cc1cccc(-n2c(=O)c3c(cc(C)n3C)n(CC(=O)Nc3cccc(C#N)c3)c2=O)c1` was 846 s; that for `CCC1Oc2ccc(S(=O)(=O)N3CCC(C(=O)Nc4cccc(C)c4)CC3)cc2NC1=O` (stereo not given) was 814 s; that for `COCCN(Cc1ccc(Cl)cc1)Cc1cc(=O)c2cccc(F)c2[nH]1` was 983 s.
The compound `O=C(NC1CC1)[C@@H]1C[C@H](Oc2ccccc2)CN1C(=O)Cn1c(=O)oc2ccccc21` yielded an RP-LC retention time of 786 s.
The value for `CN(Cc1ccccc1)C(=O)c1ccc2c(c1)N(Cc1ccccc1)C(=O)CO2` was 878 s.
As for `O=C(c1ccco1)N1CCN(c2ccc3cc(S(=O)(=O)N4CCCC4)ccc3n2)CC1`, the figure is 704 s.
For `COc1cc(NC(=O)c2cn(-c3cc(N4CCC(C)CC4)ncn3)cn2)cc(OC)c1`, the RP-LC retention time worked out at 1110 s.
